A short description of this data set: compatibility with pesticides, modified ASTM E1518-05 (2012) tank mixture test. Type of data set: physicochemical. The conditions noted are these: admixture with the zinc-containing adjuvant, after 72 hours. As for the experimental part:
The zinc-containing adjuvant compositions of the present disclosure were tested for compatibility with pesticides using a modified approach from ASTM E1518-05 (2012), Standard Practice for Evaluation of Physical Compatibility of Pesticides in Aqueous Tank Mixtures by the Dynamic Shaker Method, ASTM International, West Conshohocken, P A, 2012. The pesticides tested included: glyphosate including in its various forms including Roundup®) PowerMax®, Durango®, Cornerstone® 5 plus, Touchdown Total®, Enlist Duo™ (containing glyphosate and 2,4-D) and MON 76382; 2,4-D; Sterling® Blue; Basagran®; Enginia™.
Materials and Methods: The apparatuses used in compatibility testing included: 1. a graduated cylinder, 120 mL; 2. transfer pipets; 3. balance, +0.01 g; 4. a sieve, U.S. standard, 50 mesh (300 μm), 3 inches in diameter; and 5. a flashlight. […] Synthetic water was made according to CIPAC handbook F section MT18.
The final disposition of the compatibility test was on or around 100 mL, and the ratios needed to bring an application of 10 gallons per acre to 100 mL per acre were calculated. 70 percent of the water needed for the compatibility test was added to the cylinder at room temperature. The remaining components were added for the jar test according to WALES and DALES unless otherwise specified by the product label. Applications rates were used from the product label. […]

Turning to `O=C(O)COc1ccc(Cl)cc1Cl` [2,4-D, 2,4-Dichlorophenoxyacetic acid], the compatibility observation result is “same results as the 24 hour testing”.
